Values after ≈ are worked out from the molar mass of the structure shown.
How the values were obtained:
IRAK4 = IRAK4 (Homo sapiens (Human), UniProt Q9NWZ3); assay: IRAK4 MSD biochemical assay (2-hour 1 mM ATP); details: 0.1 nM IRAK4, 1 mM ATP, 2 hour at room temperature
[1] = Kinetic solubility assay (CLND), pH 6.8; format: physicochemical; details: aqueous buffer, kinetic from dmso stock; potassium phosphate buffer pH 6.8, 2% DMSO, 24 hours at ambient temperature
MDR1 = MDR1 (Homo sapiens (Human), UniProt P08183); assay: in vitro; details: MDCK-MDR1
Chain of MDR1 (P08183 whole entry): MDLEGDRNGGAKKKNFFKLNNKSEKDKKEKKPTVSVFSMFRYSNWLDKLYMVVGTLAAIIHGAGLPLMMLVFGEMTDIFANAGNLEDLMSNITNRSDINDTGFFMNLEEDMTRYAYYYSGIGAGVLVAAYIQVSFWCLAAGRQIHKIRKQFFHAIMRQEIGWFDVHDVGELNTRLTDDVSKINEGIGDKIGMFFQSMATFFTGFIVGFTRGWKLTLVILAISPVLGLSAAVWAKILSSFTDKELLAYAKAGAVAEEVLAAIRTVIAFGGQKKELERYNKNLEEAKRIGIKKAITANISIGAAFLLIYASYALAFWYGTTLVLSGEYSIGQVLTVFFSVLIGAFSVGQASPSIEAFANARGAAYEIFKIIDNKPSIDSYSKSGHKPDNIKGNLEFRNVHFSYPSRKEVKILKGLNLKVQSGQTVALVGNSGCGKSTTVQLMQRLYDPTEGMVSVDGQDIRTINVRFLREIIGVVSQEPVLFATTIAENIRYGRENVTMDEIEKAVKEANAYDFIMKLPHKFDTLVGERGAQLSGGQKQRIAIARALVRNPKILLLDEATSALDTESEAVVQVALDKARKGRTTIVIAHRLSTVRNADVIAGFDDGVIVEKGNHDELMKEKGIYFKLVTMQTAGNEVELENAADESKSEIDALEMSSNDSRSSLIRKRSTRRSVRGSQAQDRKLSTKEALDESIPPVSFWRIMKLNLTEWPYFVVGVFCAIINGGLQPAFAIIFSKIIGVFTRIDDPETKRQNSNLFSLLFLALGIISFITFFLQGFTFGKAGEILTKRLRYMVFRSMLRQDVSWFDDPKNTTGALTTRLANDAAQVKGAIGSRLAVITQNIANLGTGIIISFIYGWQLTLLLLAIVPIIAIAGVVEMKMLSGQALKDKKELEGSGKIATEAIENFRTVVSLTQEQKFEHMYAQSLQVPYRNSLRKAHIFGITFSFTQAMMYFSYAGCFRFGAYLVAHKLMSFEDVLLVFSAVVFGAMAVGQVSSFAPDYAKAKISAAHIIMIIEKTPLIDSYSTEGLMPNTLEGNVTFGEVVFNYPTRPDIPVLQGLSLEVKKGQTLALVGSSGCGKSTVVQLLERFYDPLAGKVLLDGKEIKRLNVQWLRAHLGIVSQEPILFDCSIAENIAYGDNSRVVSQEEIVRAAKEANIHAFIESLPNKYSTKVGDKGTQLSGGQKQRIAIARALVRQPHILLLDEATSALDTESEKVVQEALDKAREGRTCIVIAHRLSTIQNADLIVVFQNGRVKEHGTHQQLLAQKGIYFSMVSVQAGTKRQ

Chain of IRAK4 (Q9NWZ3 whole entry): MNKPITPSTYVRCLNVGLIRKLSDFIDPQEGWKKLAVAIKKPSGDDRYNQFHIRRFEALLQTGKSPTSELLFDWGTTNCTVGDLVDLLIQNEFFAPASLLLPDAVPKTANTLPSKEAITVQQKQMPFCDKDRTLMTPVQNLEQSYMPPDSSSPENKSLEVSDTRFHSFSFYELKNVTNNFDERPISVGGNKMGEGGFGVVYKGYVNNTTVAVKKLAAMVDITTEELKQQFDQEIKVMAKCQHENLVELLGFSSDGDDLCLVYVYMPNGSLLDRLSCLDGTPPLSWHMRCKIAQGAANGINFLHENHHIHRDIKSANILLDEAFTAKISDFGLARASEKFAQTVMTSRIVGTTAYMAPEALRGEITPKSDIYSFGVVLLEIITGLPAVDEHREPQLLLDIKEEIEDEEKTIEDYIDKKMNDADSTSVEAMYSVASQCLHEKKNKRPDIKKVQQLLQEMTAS

Row | Compound | IC50 (IRAK4) [nM] | solubility kinetic at 24 h [1] [µg/mL] | efflux ratio at 120 min, 1 μM (MDR1)
1 | CC(C)Oc1cc2nc([C@H]3COCCO3)cn2cc1C(=O)Nc1cccn(C2CC2)c1=O (single isomer, unassigned) [Example 70] | 1.2 | 9.9 (≈ 22.6 µM) | 3.9
2 | CC(C)Oc1c(C(=O)Nc2cccn([C@H]3C[C@H]3F)c2=O)cn2cc(C34COC(C)(C3)C4)nc2c1F (single isomer, unassigned) [Example 93] | 0.6 | 62.8 (≈ 130 µM) | 4.9
3 | CC12CC(c3cn4cc(C(=O)Nc5cccn([C@@H]6C[C@@H]6F)c5=O)c(OC5CCC5)nc4n3)(CO1)C2 (single isomer, unassigned) [Example 113] | 12.6 | 59.5 (≈ 124 µM) | 8.7
4 | CC12CC(c3cn4cc(C(=O)Nc5cccn([C@H]6C[C@H]6F)c5=O)c(OC5CCC5)nc4n3)(CO1)C2 (single isomer, unassigned) [Example 114] | 0.3 | 68.6 (≈ 143 µM) | 10.4
5 | CC(C)Oc1cc2nc([C@@]34CC[C@@](C)(C3)OC4)cn2cc1C(=O)Nc1cccn([C@H]2C[C@@H]2F)c1=O (single isomer, unassigned) [Example 117] | 0.7 | 23.1 (≈ 48.1 µM) | 3.9
6 | CC(C)Oc1cc2nc([C@]34CC[C@](C)(C3)OC4)cn2cc1C(=O)Nc1cccn([C@@H]2C[C@H]2F)c1=O (single isomer, unassigned) [Example 118] | 0.9 | 56.2 (≈ 117 µM) | 5.1
7 | CC(C)Oc1c(C(=O)Nc2cccn([C@H]3C[C@H]3F)c2=O)cn2cc([C@]34CC[C@](C)(C3)OC4)nc2c1F (single isomer, unassigned) [Example 127] | 0.7 | 32.6 (≈ 65.4 µM) | 3.4
8 | CC(C)Oc1nc2nc([C@]34CC[C@](C)(C3)OC4)cn2cc1C(=O)Nc1cccn([C@H]2CC23CC3)c1=O (single isomer, unassigned) [Example 152] | 0.8 | 24.9 (≈ 50.9 µM) | 1.4
9 | CC[C@H](C)Oc1cc2nc(C34COC(C)(C3)C4)cn2cc1C(=O)Nc1cccn([C@H]2C[C@H]2F)c1=O (single isomer, unassigned) [Example 161] | 0.1 | 54.6 (≈ 114 µM) | 8.6
10 | O=C(Nc1cccn([C@H]2C[C@H]2F)c1=O)c1cn2cc(C34COC(C3)C4)nc2nc1OC1CCC1 (single isomer, unassigned) [Example 167] | 0.2 | 19.2 (≈ 41.2 µM) | 2.3
11 | CC12CC(c3cn4cc(C(=O)Nc5cccn([C@H]6C[C@H]6F)c5=O)c(OC5CCC5)cc4n3)(CO1)C2 (single isomer, unassigned) [Example 173] | 0.2 | 22.6 (≈ 47.2 µM) | 10.9
12 | CC(C)Oc1cc2nc([C@@]34CC[C@@](C)(C3)OC4)cn2cc1C(=O)Nc1cccn([C@@H]2C[C@H]2C)c1=O (single isomer, unassigned) [Example 191] | 0.4 | 48.5 (≈ 102 µM) | 1.5
13 | CC(C)Oc1cc2nc([C@@]34CC[C@@](C)(C3)OC4)cn2cc1C(=O)Nc1cccn([C@H]2C[C@@H]2C)c1=O (single isomer, unassigned) [Example 192] | 0.7 | 60.6 (≈ 127 µM) | 1.7
14 | CC12CCC(c3cn4cc(C(=O)Nc5cccn(C6CC6)c5=O)c(OC5CCC5)cc4n3)(CC1)CO2 [Example 1, 7-cyclobutoxy-N-(1-cyclopropyl-2-oxo-1,2-dihydropyridin-3-yl)-2-(1-methyl-2-oxabicyclo[2.2.2]octan-4-yl)imidazo[1,2-a]pyridine-6-carboxamide] | 0.2 | 56 (≈ 115 µM) | 1.7
15 | CCC12CC(c3cn4cc(C(=O)Nc5cccn(C6CC6)c5=O)c(OC(C)C)cc4n3)(CO1)C2 [Example 2, N-(1-cyclopropyl-2-oxo-1,2-dihydropyridin-3-yl)-2-(1-ethyl-2-oxabicyclo[2.1.1]hexan-4-yl)-7-isopropoxyimidazo[1,2-a]pyridine-6-carboxamide] | 0.4 | 65.7 (≈ 142 µM) | 3.3
16 | CCC(C)Oc1cc2nc([C@@]34CC[C@@](C)(C3)OC4)cn2cc1C(=O)Nc1cccn(C2CC2)c1=O (stereo partly drawn) [Example 20, 7-(sec-butoxy)-N-(1-cyclopropyl-2-oxo-1,2-dihydropyridin-3-yl)-2-((1S,4R)-1-methyl-2-oxabicyclo[2.2.1]heptan-4-yl)imidazo[1,2-a]pyridine-6-carboxamide] | 0.7 | 68.1 (≈ 143 µM) | 2.8
17 | CC12CCC(c3cn4cc(C(=O)Nc5cccn(C6CC6)c5=O)c(OC5CCC5)cc4n3)(CO1)C2 (stereo not drawn) [Example 23, 7-cyclobutoxy-N-(1-cyclopropyl-2-oxo-1,2-dihydropyridin-3-yl)-2-(1-methyl-2-oxabicyclo[2.2.1]heptan-4-yl)imidazo[1,2-a]pyridine-6-carboxamide] | 0.5 | 61.9 (≈ 130 µM) | 2.8
18 | C[C@@H](CF)Oc1cc2nc(C34COC(C)(C3)C4)cn2cc1C(=O)Nc1cccn(C2CC2)c1=O [Example 28, (S)—N-(1-cyclopropyl-2-oxo-1,2-dihydropyridin-3-yl)-7-((1-fluoropropan-2-yl)oxy)-2-(1-methyl-2-oxabicyclo[2.1.1]hexan-4-yl)imidazo[1,2-a]pyridine-6-carboxamide] | 0.2 | 62.6 (≈ 134 µM) | 18.2
19 | C[C@H](CF)Oc1cc2nc(C34COC(C)(C3)C4)cn2cc1C(=O)Nc1cccn(C2CC2)c1=O [Example 29, (R)—N-(1-cyclopropyl-2-oxo-1,2-dihydropyridin-3-yl)-7-((1-fluoropropan-2-yl)oxy)-2-(1-methyl-2-oxabicyclo[2.1.1]hexan-4-yl)imidazo[1,2-a]pyridine-6-carboxamide] | 0.6 | 60.2 (≈ 129 µM) | 13.6
20 | CC(C)Oc1cc2nc(C34COC(C3)C4)cn2cc1C(=O)Nc1cccn(C2CC2)c1=O [Example 34, 2-(2-oxabicyclo[2.1.1]hexan-4-yl)-N-(1-cyclopropyl-2-oxo-1,2-dihydropyridin-3-yl)-7-isopropoxyimidazo[1,2-a]pyridine-6-carboxamide] | 1 | 39.2 (≈ 90.2 µM) | 11.1
21 | O=C(Nc1cccn(C2CC2)c1=O)c1cn2cc(C34COC(C3)C4)nc2cc1OC1CCC1 [Example 37, 2-(2-oxabicyclo[2.1.1]hexan-4-yl)-7-cyclobutoxy-N-(1-cyclopropyl-2-oxo-1,2-dihydropyridin-3-yl)imidazo[1,2-a]pyridine-6-carboxamide] | 3.1 | 64.4 (≈ 144 µM) | 10.2
22 | CC[C@@H](C)Oc1nc2nc([C@@]34CC[C@@](C)(C3)OC4)cn2cc1C(=O)Nc1cccn(C2CC2)c1=O [Example 48, 7-((R)-sec-butoxy)-N-(1-cyclopropyl-2-oxo-1,2-dihydropyridin-3-yl)-2-((1S,4R)-1-methyl-2-oxabicyclo[2.2.1]heptan-4-yl)imidazo[1,2-a]pyrimidine-6-carboxamide] | 0.8 | 63.2 (≈ 132 µM) | 3.2
23 | CC[C@H](C)Oc1nc2nc(C34CCC(CF)(C3)OC4)cn2cc1C(=O)Nc1cccn(C2CC2)c1=O (stereo partly drawn) [Example 56, 7-((S)-sec-butoxy)-N-(1-cyclopropyl-2-oxo-1,2-dihydropyridin-3-yl)-2-(1-(fluoromethyl)-2-oxabicyclo[2.2.1]heptan-4-yl)imidazo[1,2-a]pyrimidine-6-carboxamide] | 0.6 | 67.5 (≈ 136 µM) | 4.1
24 | COC12CC(c3cn4cc(C(=O)Nc5cccn(C6CC6)c5=O)c(OC(C)C)cc4n3)(C1)C2 [Example 62, N-(1-cyclopropyl-2-oxo-1,2-dihydropyridin-3-yl)-7-isopropoxy-2-(3-methoxybicyclo[1.1.1]pentan-1-yl)imidazo[1,2-a]pyridine-6-carboxamide] | 0.4 | 58.2 (≈ 130 µM) | 3.6
25 | CC12CC(c3cn4cc(C(=O)Nc5ccnn(C6CC6)c5=O)c(OC5CCC5)nc4n3)(CO1)C2 [Example 72, 7-cyclobutoxy-N-(2-cyclopropyl-3-oxo-2,3-dihydropyridazin-4-yl)-2-(1-methyl-2-oxabicyclo[2.1.1]hexan-4-yl)imidazo[1,2-a]pyrimidine-6-carboxamide] | 4.2 | 1.5 (≈ 3.24 µM) | 1.7
26 | CC(C)Oc1cc2nc([C@@]34CC[C@@](C)(C3)OC4)cn2cc1C(=O)Nc1ccnn(C2CC2)c1=O [Example 74, N-(2-cyclopropyl-3-oxo-2,3-dihydropyridazin-4-yl)-7-isopropoxy-2-((1S,4R)-1-methyl-2-oxabicyclo[2.2.1]heptan-4-yl)imidazo[1,2-a]pyridine-6-carboxamide] | 1.2 | 47.5 (≈ 102 µM) | 1
27 | CC(C)Oc1cc2nc([C@]34CC[C@](C)(C3)OC4)cn2cc1C(=O)Nc1ccnn(C2CC2)c1=O [Example 75, N-(2-cyclopropyl-3-oxo-2,3-dihydropyridazin-4-yl)-7-isopropoxy-2-((1R,4S)-1-methyl-2-oxabicyclo[2.2.1]heptan-4-yl)imidazo[1,2-a]pyridine-6-carboxamide] | 1.6 | 40.4 (≈ 87.2 µM) | 1.4
28 | CC(C)Oc1cc2nc([C@@]34CC[C@@](C)(C3)OC4)cn2cc1C(=O)Nc1cccn(C2C[C@H]2C)c1=O (stereo partly drawn) [Example 98, trans-7-isopropoxy-2-((1S,4R)-1-methyl-2-oxabicyclo[2.2.1]heptan-4-yl)-N-(1-(2-methylcyclopropyl)-2-oxo-1,2-dihydropyridin-3-yl)imidazo[1,2-a]pyridine-6-carboxamide] | 0.7 | 89.7 (≈ 188 µM) | 2.1

— patent US20240116922A1, “IMIDAZO[1,2-A]PYRIDINE DERIVATIVES AS IRAK4 INHIBITORS AND THEIR USE IN THE TREATMENT OF DISEASE” (BIOGEN MA INC., priority 2020, published 2024)
